How the values were obtained:
Assay in all cases: filter binding kinase assay
Type in all cases: biochemical
Details in all cases: derived from % inhibition at 1 μM
[1] = target: T1, MAPK12 (Homo sapiens, UniProt P53778)
T1 construct: purchased
T1 sequence (P53778 1-367): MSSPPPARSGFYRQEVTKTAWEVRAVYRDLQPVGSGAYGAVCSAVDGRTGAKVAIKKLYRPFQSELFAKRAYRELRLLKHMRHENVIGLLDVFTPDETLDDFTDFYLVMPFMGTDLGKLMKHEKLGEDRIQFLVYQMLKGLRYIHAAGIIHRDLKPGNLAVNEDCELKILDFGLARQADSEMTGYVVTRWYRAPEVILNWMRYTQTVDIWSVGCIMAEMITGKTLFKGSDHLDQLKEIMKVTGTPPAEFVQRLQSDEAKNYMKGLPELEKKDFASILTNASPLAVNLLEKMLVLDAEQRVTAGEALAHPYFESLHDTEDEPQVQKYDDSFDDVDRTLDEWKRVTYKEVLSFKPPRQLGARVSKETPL
How it was run: (§1)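 Compound was pre-incubated with enzyme and substrate for 5 minutes at room temperature, then the reaction was started with ATP (added solution at 5, 20 or 50 […] depending on kinase). Orthophosphoric acid stopped it, and phosphorylated substrate captured on P81 filters was quantified by scintillation counting.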

[2] = target: T2, STK11 (Homo sapiens, UniProt Q15831)
T2 construct: purchased
T2 sequence (Q15831 1-433): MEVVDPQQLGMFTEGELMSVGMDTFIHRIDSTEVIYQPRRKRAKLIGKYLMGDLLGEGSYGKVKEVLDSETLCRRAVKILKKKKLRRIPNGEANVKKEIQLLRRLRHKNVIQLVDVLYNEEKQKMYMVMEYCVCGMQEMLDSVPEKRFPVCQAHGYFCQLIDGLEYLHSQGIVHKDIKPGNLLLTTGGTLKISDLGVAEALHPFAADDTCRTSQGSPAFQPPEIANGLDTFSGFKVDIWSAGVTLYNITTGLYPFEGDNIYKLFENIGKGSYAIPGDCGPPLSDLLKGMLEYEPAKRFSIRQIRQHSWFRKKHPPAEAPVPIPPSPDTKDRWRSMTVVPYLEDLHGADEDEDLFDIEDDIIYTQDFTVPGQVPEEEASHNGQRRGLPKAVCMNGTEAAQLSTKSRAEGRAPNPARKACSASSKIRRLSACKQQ
T2 sequence (Q7RTN6 1-431 partner): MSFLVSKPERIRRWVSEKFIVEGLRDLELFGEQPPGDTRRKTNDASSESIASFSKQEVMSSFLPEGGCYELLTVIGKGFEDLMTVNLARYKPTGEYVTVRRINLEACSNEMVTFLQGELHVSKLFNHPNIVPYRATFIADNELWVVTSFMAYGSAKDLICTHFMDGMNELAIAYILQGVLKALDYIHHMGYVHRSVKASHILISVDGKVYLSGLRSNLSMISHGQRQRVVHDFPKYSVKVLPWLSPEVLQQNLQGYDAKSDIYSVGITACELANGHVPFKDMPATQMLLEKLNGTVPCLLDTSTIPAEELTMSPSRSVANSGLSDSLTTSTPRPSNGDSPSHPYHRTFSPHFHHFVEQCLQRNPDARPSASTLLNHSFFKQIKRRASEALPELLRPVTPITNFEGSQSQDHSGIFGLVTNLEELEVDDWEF
T2 sequence (Q9Y376 1-341 partner): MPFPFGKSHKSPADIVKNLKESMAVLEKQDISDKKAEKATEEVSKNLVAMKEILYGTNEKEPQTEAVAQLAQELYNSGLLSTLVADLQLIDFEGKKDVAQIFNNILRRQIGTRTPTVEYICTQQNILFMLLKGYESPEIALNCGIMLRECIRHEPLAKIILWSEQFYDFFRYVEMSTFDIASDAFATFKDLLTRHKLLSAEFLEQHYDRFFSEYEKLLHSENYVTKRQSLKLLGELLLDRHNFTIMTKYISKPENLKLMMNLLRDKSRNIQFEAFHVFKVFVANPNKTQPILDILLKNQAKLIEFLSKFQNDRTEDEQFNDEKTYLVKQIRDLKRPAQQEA
How it was run: as §1

[3] = target: T3, PIM3 (Homo sapiens, UniProt Q86V86)
T3 construct: purchased
How it was run: as §1

[4] = target: T4, DYRK3 (Homo sapiens, UniProt O43781)
T4 construct: purchased
T4 sequence (O43781 1-588): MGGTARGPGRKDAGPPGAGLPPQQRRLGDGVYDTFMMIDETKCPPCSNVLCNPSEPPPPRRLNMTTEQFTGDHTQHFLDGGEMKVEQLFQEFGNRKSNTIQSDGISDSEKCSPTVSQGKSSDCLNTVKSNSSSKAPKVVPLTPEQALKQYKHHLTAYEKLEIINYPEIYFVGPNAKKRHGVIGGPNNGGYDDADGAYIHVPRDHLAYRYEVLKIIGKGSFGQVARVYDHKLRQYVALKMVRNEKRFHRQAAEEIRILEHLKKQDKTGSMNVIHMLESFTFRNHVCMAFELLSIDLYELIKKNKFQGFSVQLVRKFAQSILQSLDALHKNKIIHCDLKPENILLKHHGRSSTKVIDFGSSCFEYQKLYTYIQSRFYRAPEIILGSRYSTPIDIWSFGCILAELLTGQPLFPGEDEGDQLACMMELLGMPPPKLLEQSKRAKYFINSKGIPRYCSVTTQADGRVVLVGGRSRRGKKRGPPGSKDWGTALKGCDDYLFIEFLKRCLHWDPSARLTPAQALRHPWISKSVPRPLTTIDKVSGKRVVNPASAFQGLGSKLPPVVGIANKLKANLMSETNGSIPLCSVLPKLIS
How it was run: as §1

[5] = target: T5, SGK (Homo sapiens, UniProt O00141)
T5 construct: purchased
T5 sequence (O00141 1-431): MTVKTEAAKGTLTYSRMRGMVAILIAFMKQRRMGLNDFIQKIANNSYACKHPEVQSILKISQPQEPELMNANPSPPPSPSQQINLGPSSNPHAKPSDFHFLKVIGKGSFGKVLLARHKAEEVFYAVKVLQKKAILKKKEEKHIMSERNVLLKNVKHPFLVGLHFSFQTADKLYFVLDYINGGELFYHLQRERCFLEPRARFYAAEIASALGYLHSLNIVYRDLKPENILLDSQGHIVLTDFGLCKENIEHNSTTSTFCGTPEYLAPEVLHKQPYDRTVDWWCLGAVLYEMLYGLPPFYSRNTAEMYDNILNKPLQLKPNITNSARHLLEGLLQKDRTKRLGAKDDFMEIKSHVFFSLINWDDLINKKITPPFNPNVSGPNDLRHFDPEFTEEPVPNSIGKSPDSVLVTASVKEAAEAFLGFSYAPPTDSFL
How it was run: as §1

SMILES	IC50 [1] [µM]	IC50 [2] [µM]	IC50 [3] [µM]	IC50 [4] [µM]	IC50 [5] [µM]
CC(C)(C)OC(=O)Nc1nc(-c2ccncc2)sc1C#CCN1CCOCC1 [Compound A25, tert-butyl[5-(3-morpholin-4-ylprop-1-ynyl)-2-pyridin-4-ylthiazol-4-yl]-carbamate]	10 to 100	> 1	> 1	10 to 100	10 to 100
c1ccc(Cc2c[nH]c3ncsc23)cc1 [Compound A7, 6-benzyl-4H-pyrrolo[2,3-d]thiazole]	> 1	10 to 100	1 to 10	10 to 100	> 1
Nc1ncsc1C#Cc1cnc2[nH]ccc2c1 [Compound A22, 5-(1H-pyrrolo[2,3-b]pyridin-5-ylethynyl)thiazol-4-ylamine]	1 to 10	> 1	10 to 100	10 to 100	1 to 10
Nc1ncsc1C#Cc1cccc(O)c1 [Compound A27, 3-(4-aminothiazol-5-ylethynyl)phenol]	1 to 10	> 1	1 to 10	10 to 100	> 1
CC(C)(C)OC(=O)Nc1ncsc1C#CCN1C(=O)c2ccccc2C1=O [Compound A26, tert-butyl{5-[3-(1,3-dioxo-1,3-dihydroisoindol-2-yl)prop-1-ynyl]-thiazol-4-yl}carbamate]	10 to 100	10 to 100	> 1	1 to 10	1 to 10

From patent US8703961B2, “Thiazole derivatives for the treatment of diseases such as cancer” (Merck Patent GmbH, priority 2009, dated 2014)
